# Assay results: patent publication US12029777B2, “Serine proteinase inhibitors: Serp-1 and Serp-1 RCL-derived peptides effect on microbiome composition and uses thereof” (ARIZONA BOARD OF REGENTS ON BEHALF OF ARIZONA STATE …, priority 2019, dated 2024)
# “Also recorded” adds a separate entry of the source.
# B1: Serp-1: secreted myxomavirus-derived serine protease inhibitor (serpin), purified protein, SEQ ID NO: 1 (protein)
# chain: MKYLVLVLCLTSCACRDIGLWTFRYVYNESDNVVFSPYGLTSALSVLRIAAGGNTKREIDVPESVVEDSDAFLALRELFVDASVPLRPEFTAEFSSRFNTSVQRVTFNSENVKDVINSYVKDKTGGDVPRVLDASLDRDTKMLLLSSVRMKTSWRHVFDPSFTTDQPFYSGNVTYKVRMMNKIDTLKTETFTLRNVGYSVTELPYKRRQTAMLLVVPDDLGEIVRALDLSLVRFWIRNMRKDVCQVVMPKFSVESVLDLRDALQRLGVRDAFDPSRADFGQASPSNDLYVTKVLQTSKIEADERGTTASSDTAITLIPRNALTAIVANKPFMFLIYHKPTTTVLFMGTIT
# modifications: Serp-1 recombinant polypeptide
# What was measured:
# [1] = tested on: MHV-68; experiment: Survival after lethal intraperitoneal MHV-68 infection of IFNγR−/− mice; format: in vivo; settings: for survival after MHV-68 infection (modified S-7 peptides): MHV-68 infection model; for survival at 150 days: 100 ng/g IP injections for 30 days, no antibiotics, MHV-68 infected IFNγR−/− mice; for median survival: 10 days antibiotic pre-treatment, then MHV-68 infection and 30 days IP treatment; for efficacy after antibiotic treatment versus saline treatment after antibiotics: +Abx vs Saline+Abx, survival
# Text: Animals. IFNγR^−/− mice (B6.129S7-Ifngr1^tm1Agt/J) were purchased from the Jackson Laboratory (Bar Harbor, ME, USA). Animals were housed in barrier conditions at the University of Florida Animal Care Services vivarium and bred under specific pathogen-free conditions. Mice were weaned at 3 weeks, maintained on a 12-hour light-dark cycle and were fed water and standard rodent chow ad libitum.
# Antibiotic treatment. At 4 weeks of age, IFNγR^−/− mouse cohorts were transferred from the ABSL1 colony to a separate, ABSL2 colony. Gut microbiome suppression was achieved by replacing standard drinking water with autoclaved reverse osmosis water (obtained from the same animal care facility) containing an antibiotic cocktail (Table 1) composed of Streptomycin (2 g/L), Gentamicin (0.5 g/L), Bacitracin (1 g/L) and Ciprofloxacin (0.125 g/L) for 10 days. One day (24 hours) prior to infection, medicated water was replaced with standard animal care facility water, which was maintained for the remainder of the experiment.
# MHV-68 infection. On day 11 (after 10 days of antibiotics) mice (5 weeks old) were infected with MHV-68 at a dose of 12.5×10^6 PFU in 0.1 mL DMEM by intraperitoneal (IP) injection as previously described22,25,27,30. Mice were returned to the colony and monitored for signs of distress for the duration of the experiment. Mice were either followed for 150 days to determine survival or euthanized at 3 days post-infection and organs harvested into formalin for histology or RNAlater (Thermo Scientific, USA) for microbiome analyses. Details on the numbers of MHV-68-infected mice in this study are detailed in Table 2.
# Statistical analysis. Survival and pathology statistics were analyzed with GraphPad Prism v8.0.1. Kaplan-Meier survival statistics were calculated using Log-rank (Mantel-Cox) testing. For visualization, individual comparison curves are presented. Lung pathology statistics were compared using a Two-Way ANOVA with a Fisher's LSD or Tukey's post-hoc test. Bars are mean±standard error. P-value less than 0.05 was considered significant. *p<0.05, **p<0.01, ***p<0.001, ****p<0.0001; n.s. is not significant.
# MHV-68 infections establish latency with chronic infection in wildtype mice, causing only flu-like symptoms. Conversely, intraperitoneal infection of mice with underlying immune deficiency, as for IFNγR^−/− mice, results in a lethal large vessel vasculitis, colitis and hemorrhagic pneumonia with early mortality. Intranasal infection, an alternative model for MHV-68, is not a model for severe vasculitic syndromes. This intraperitoneal infection model of vasculitis has been used to study the pathogenesis of gammaherpesvirus host-pathogen interactions, as well as to investigate the potential for anti-inflammatory treatment of associated inflammatory vasculitic syndromes. Intraperitoneal infection of IFNγR−/− mice with 12.5×10^6 pfu was performed with follow-up for 150 days to determine survival rates. MHV-68 infection with administration of control saline treatment alone for 30 days was lethal, with a median survival of 41 days. […] Thus, Serp-1 and S-7 protect IFNγR−/− mice after lethal MHV-68 infection.
# The potential for dependence of Serp-1 and S-7 therapeutic efficacy on the gut bacterial microbiome in MHV-68 infected IFNγR^−/− mice was investigated. Mice were treated with medicated drinking water (Table 1) for 10 days, placed on normal water for 24 hours, then infected with MHV-68 and concurrently treated for 30 days with either Serp-1 or S-7 by IP injection. Mice were followed for survival or 3-day follow-up (FIG. 2A).
# [2] = tested on: MHV-68; experiment: MHV-68 antigen immunostaining in lungs at 3 days after infection; format: in vivo, mice; settings: for MHV-68 antigen levels in the lungs: without antibiotic treatment, 3-day follow-up
# Method: (§1) Immunohistochemistry. FFPE blocks containing lung tissue were sectioned into 4-6 μm ribbons, captured on charged glass and dried overnight at 37° C. prior to processing. Slides were rehydrated and epitopes retrieved by boiling in sodium citrated buffer. Endogenous peroxidases were quenched with 3% hydrogen peroxide, slides were blocked in 5% bovine serum albumin in TBS/0.1% Tween 20 and sections were probed with rabbit polyclonal antibody against CD3 (Abcam ab5690; 1:200), CD4 (Abcam ab183685; 1:1000) or CD8 (Abcam ab209775; 1:2000). For MHV-68 detection, 1:500 rabbit anti-serum or pre-immune serum (as control) were used for immunostaining (kind gift of Dr. H. W. Virgin 1119). 1:500 goat anti-rabbit HRP was used for secondary staining (Jackson Immuno Research 111-035-144). […] Sections were imaged with a 40×/0.75NA objective.
# [3] = tested on: MHV-68; experiment: Lung histopathology and quantitative morphometry at 3 days after MHV-68 infection; format: in vivo, mice; settings: for severe pulmonary pathology (consolidation and inflammation): absence of antibiotics, vs saline; for severe pulmonary pathology (consolidation and inflammation) / early lung pathology after antibiotic treatment: 3-day follow-up; for alveolar wall thickness: no antibiotics, versus saline-treated controls; for alveolar lumen area: without antibiotic pre-treatment, compared to saline-treated controls
# Method: Histopathology. Mice were euthanized at 3 days follow-up after infection by carbon dioxide asphyxiation followed by cervical dislocation. Organs were harvested and fixed in 10% neutral buffered formalin. Samples were dehydrated through graded alcohol, paraffin-embedded, sectioned into 4-6 μm ribbons, captured on charged glass and dried overnight at 37° C. prior to processing for histopathology. Slides were rehydrated, stained with Gill's hematoxylin No. 3 and Eosin Y (H&E) according to standard procedure, dehydrated and mounted in Cytoseal XYL (Thermo Fisher Scientific, USA).
# Quantitative morphometry. H&E-stained aorta, lung and colon sections were imaged with a 20×/0.5NA objective on an Olympus BX51 microscope equipped with an Olympus DP74 camera operated by cellSens Dimensions v1.16 software. Objective-calibrated measurements of alveolar septal thickness and lumen area were collected using cellSens Dimensions. At least 50 measurements were collected and averaged for each mouse, and at least three mice were examined for each group. Images were processed for visualization in figures using ImageJ/FIJI v1.52i92.
# [4] = tested on: CD3+, CD4+ and CD8+ cells in the lungs; experiment: Immunohistochemistry of CD3+, CD4+, CD8+ cells in lungs at 3 days after MHV-68 infection; format: in vivo, mice; settings: for CD3 infiltration-promoting effect and CD8 bias after antibiotic treatment: after antibiotic depletion of gut microbiome; for CD8+ staining in lungs / detectable CD3+ cells in the lungs / pulmonary CD4+ cells: no antibiotics, 3-day follow-up
# Method: as §1
# [5] = molecular target: uPA (Homo sapiens, UniProt P00749); experiment: In vitro uPA substrate conversion assay; format: biochemical; settings: presence of the antibiotic cocktail
molecule,measurement,setting,value
GTTASSDTAITDEPR (Modified S7 peptide MPS7-9),survival after MHV-68 infection (modified S-7 peptides),[1],improved survival
GTTASSDTAITLEPR (Modified S-7 peptide MPS7-8),survival after MHV-68 infection (modified S-7 peptides),[1],improved survival
GTTASSDTAITLIPR (Reactive Center Loop Polypeptide sequence of for a serine protease inhibitor) [S-7],decrease in detectable MHV68 after antibiotic pre-treatment,[2],partially reversed
same,MHV-68 antigen levels in the lungs,[2],significantly reduced
same,severe pulmonary pathology (consolidation and inflammation),[3],considerably reduced
same,early lung pathology after antibiotic treatment,[3],markedly worse
same,alveolar lumen area protection after antibiotic treatment,[3]; after antibiotics,nullified any level of protection
same,reduction in alveolar wall thickness after treatment with antibiotics,[3]; after antibiotics,lost
same,alveolar wall thickness,[3],significant reduction
same,alveolar lumen area,[3],significantly increased
same,survival at 150 days,[1],60%
same,median survival,[1],18 days
same,efficacy after antibiotic treatment versus saline treatment after antibiotics,[1],not significantly different
same,CD3 infiltration-promoting effect and CD8 bias after antibiotic treatment,[4],loss
same,CD8+ staining in lungs,[4],significant increases
same,detectable CD3+ cells in the lungs,[4],significantly increased
same,pulmonary CD4+ cells,[4],no appreciable effect
B1,decrease in detectable MHV68 after antibiotic pre-treatment,[2],partially reversed
same,MHV-68 antigen levels in the lungs,[2],significantly reduced
same,severe pulmonary pathology (consolidation and inflammation),[3],considerably reduced
same,early lung pathology after antibiotic treatment,[3],markedly worse
same,reduction in alveolar wall thickness after treatment with antibiotics,[3]; after antibiotics,lost
same,alveolar wall thickness,[3],significant reduction
same,alveolar lumen area,[3],trend toward an increase
same,inhibition of uPA activity in presence of broad-spectrum antibiotic cocktail,[5],unaffected; also recorded: not affected
same,survival at 150 days,[1],60%
same,median survival,[1],19 days
same,efficacy after antibiotic treatment versus saline treatment after antibiotics,[1],not significantly different
same,CD3 infiltration-promoting effect and CD8 bias after antibiotic treatment,[4],loss
same,CD8+ staining in lungs,[4],strong trend towards increase
same,detectable CD3+ cells in the lungs,[4],trended towards increasing
same,pulmonary CD4+ cells,[4],no appreciable effect
